Data set [1] deals with S. aureus ATCC 43300. Kind of data set: Transmission electron microscopy of septum formation. The format is cell-based, Staphylococcus aureus. The note with it: MRSA cultured overnight; 1 at 1 μg/mL, DFNB at 0.25 μg/mL. From the text:
After having assessed the antimicrobial profile of this class of derivatives, we chose 1 to be further analyzed by transmission electron microscopy (TEM), in order to evaluate any morphological changes in septum formation, as done before as a simple FtsZ target validation assay. We cultured S. aureus ATCC 43300 alone or in the presence of 1 and 2,6-difluorononyloxybenzamide (DFNB) as a reference FtsZ inhibitor (positive control). […] These are the typical effects of the inhibition of FtsZ assembly and consequently of the block of bacterial cell division.
S. aureus ATCC 43300 (10^9 cells/mL) were cultured in the presence of 1 and DFNB (positive control), at the same concentrations used for optical microscopy and, after 16 h incubation at 37 °C, the cells were harvested and processed for transmission electron microscopy, as already described. Untreated S. aureus was used as negative control. After centrifugation at 3100× g for 5 min at room temperature, pelleted bacteria were fixed in 2.5% glutaraldehyde (Polysciences, Warrington, PA) in 0.1 M Na cacodylate buffer, pH 7.4, for 1 h at 4 °C, rinsed twice and post-fixed in Na cacodylate-buffered 1% OsO4 for 1 h at 4 °C. The samples were dehydrated through a series of graded ethanol solutions and propylene oxide and embedded in Poly/Bed 812 resin mixture. […]

Data set [2] relates to E. coli ATCC 25922. Briefly: MIC on reference sensitive E. coli. The note with it: E. coli ATCC 25922. Type of data set: cell-based, Escherichia coli. From the text: (§1) We thus tested 1–8 and III initially on the reference sensitive E. coli ATCC 25922 and on the extended-spectrum of beta-lactamase-positive (ESBL) E. coli, as Gram-negative bacteria. Moreover, in order to evaluate the susceptibility of this series of compounds to the efflux pump AcrAB, we employed also the above-mentioned E. coli N43, which is the knockout of the AcrAB cell membrane pump.

The subject of data set [3] is E. coli N43. Briefly: Broth microdilution MIC, efflux-defective E. coli N43. Type of data set: cell-based, Escherichia coli. The note with it: E. coli N43 (AcrAB knockout). The method, then:
as §1
(§2) Antibacterial activities of compounds were determined by the broth microdilution method against MDRSA 11.7, MDRSA 12.1 and E. coli N43 following the European Committee on Antimicrobial Susceptibility Testing (EUCAST) recommendations and Clinical and Laboratory Standards Institute (CLSI) guidelines. Strains MDRSA ST-11.7 and ST-12.1 were obtained through the interlaboratory control organized by the EU Reference Laboratory—Antimicrobial Resistance. Only data on their resistance to antibiotics are known, but other data are not available.
(§3) Bacterial suspension of specific bacterial strain equivalent to 0.5 McFarland turbidity standard was diluted with cation-adjusted Mueller Hinton broth with TES (Thermo Fisher Scientific), to obtain a final inoculum of 10^5 CFU/mL. Compounds dissolved in DMSO and inoculum were mixed together and incubated for 20 h at 37 °C. After incubation, the minimal inhibitory concentration (MIC) values were determined by visual inspection as the lowest dilution of compounds showing no turbidity. Tetracycline was used as a positive control on every assay plate.
On the technique in general: In broth dilution the organism is exposed to a series of concentrations in liquid medium.

The subject of data set [4] is MDRSA 12.1. Kind of data set: Broth microdilution MIC, MDRSA 12.1. Type of data set: cell-based, Staphylococcus aureus. The method, then:
(§4) Antimicrobial activity of 1–8 was evaluated on both Gram-positive (Table 3) and Gram-negative (Table 4) species. As a continuation of our previous studies, considering the Gram-positive S. aureus, we chose a methicillin-sensitive S. aureus (MSSA, ATCC 29213), a methicillin-resistant S. aureus (MRSA, ATCC 43300) and two clinical isolates of S. aureus showing multi-drug resistance (MDRSA).
as §2, §3

The test system of data set [5] is MRSA ATCC 43300. Kind of data set: MIC/MBC determination in LB broth, MRSA. The format is cell-based, Staphylococcus aureus. The method, then: (§5) Normal human lung fibroblasts (MRC-5) were grown in Dulbecco’s modified Eagle’s medium (DMEM) supplemented with 10% calf serum, 100 U/mL penicillin and […] streptomycin in an incubator at 5% CO2 atmosphere and 37 °C. The Gram-positive Staphylococcus aureus (methicillin-sensitive, MSSA ATCC 29213, and methicillin-resistant, MRSA ATCC 43300) and the Gram-negative Escherichia coli (ESBL, extended-spectrum beta-lactamase-positive) bacterial cells were grown in Luria-Bertani broth (LB) at 37 °C under constant shaking at 300 rpm.
(§6) The antibacterial activity was tested on both a methicillin-sensitive and a methicillin-resistant S. aureus strain, and an ESBL E. coli clinical isolate. All the compounds were dissolved at the final concentration of 20 mg/mL in dimethyl sulfoxide (DMSO) and serially diluted in LB. Fresh cell cultures were used at 10^5 cells/mL in a final volume of 2 mL. Each bacterial sample was grown with different compound concentrations that ranged from 100 to 0.1 μg/mL. […] To determine the MBC, the bacteria were then washed three times with LB, centrifuged at 900× g for 10 min at 4 °C, and the pellet resuspended in fresh LB. After overnight incubation at 37 °C, the absence of growth was confirmed by OD measurement. The presence of antibacterial activity, at any concentration tested, was established for values of absorbance < 0.1 OD600. All tests were performed in quadruplicate and for each series of experiments, both positive (no compounds) and negative (no bacteria) controls were included.

The test system of data set [6] is MSSA ATCC 29213. Briefly: MIC/MBC determination in LB broth, MSSA. Type of data set: cell-based, Staphylococcus aureus. The note with it: MSSA ATCC 29213. The method, then:
as §5, §6

The subject of data set [7] is MDRSA 11.7. Briefly: Broth microdilution MIC, MDRSA 11.7. The format is cell-based, Staphylococcus aureus. The method, then:
as §4, §2, §3

Data set [8] relates to MRC-5 cells. Kind of data set: MTT cytotoxicity assay. Type of data set: cell-based, human. The note with it: MRC-5, concentration reducing cell viability by 90%, 24-h incubation. The method, then:
The compounds showing the most promising activities vs. MRSA were also assessed for their cytotoxicity on human MRC-5 cells. TD90, the concentration (µg/mL) able to reduce by 90% the viability of these cells, was determined together with the therapeutic index (TI), expressed as the ratio between TD90 and MBC values.
as §5
Compounds showing an antibacterial activity at a concentration lower than 10 μg/mL were serially diluted in DMEM and tested on MRC-5 cells by the MTT cytotoxicity assay (Sigma, St Louis, MO, USA). Cells (10^4 cells/well) were tested in a 96-well plate, in quadruplicate, using serially two-fold-diluted concentrations of the compound in 100 μL DMEM medium. After a 24-h incubation, the compound was removed, and the cells were overlaid with 1 mg/mL MTT in 100 μL serum-free DMEM for 3 h at 37 °C. The MTT solution was then replaced with DMSO for 10 min, and the absorbance was measured at 570 nm. The percentage of cytotoxicity was calculated by the formula [100 − (sample OD/untreated cells OD) × 100]. The compound concentration reducing cell viability by 90% was defined as the TD90 cytotoxic dose. The “therapeutic index” (TI) was also determined and defined as the ratio between TD90 and the MBC values.
(Formazan colour is commonly taken as a measure of viable cells.)

In data set [9] the test system is ESBL E. coli. Kind of data set: MIC in LB broth, ESBL E. coli clinical isolate. The format is cell-based, Escherichia coli. The method, then: as §1, §5, §6
The test system of data set [10] is E. coli AcrAB–. Particulars: ref 10 (Z2, Z3), 11 (TXY436), 12 (I, II); cited from earlier work.
Data set [11] has as its system Methicillin Sensitive S. aureus. Particulars: Methicillin Sensitive S. aureus; ref 10 (Z2, Z3), 11 (TXY436), 12 (I, II); cited from earlier work.
Data set [12] has as its system E. coli WildType. The arrangement: method as in earlier work. The note with it: ref 10 (Z2, Z3), 11 (TXY436), 12 (I, II); cited from earlier work.
In data set [13] the test system is Sa cells. Further details: method as in PMID 31750973. Particulars: Sa cells incubated with the compounds ref 12; cited from earlier work.
Data set [14] concerns ESBL E. coli. The arrangement: method as in PMID 31750973. Particulars: in-house reference compounds ref 12; cited from earlier work.
For data set [15], the system named is E. coli N43. Further details: method as in PMID 31750973. Particulars: E. coli N43 (AcrAB knockout); in-house reference compounds ref 12; cited from earlier work.
In data set [16] the test system is E. coli ATCC 25922. Further details: method as in PMID 31750973. Particulars: in-house reference compounds ref 12; cited from earlier work.
Data set [17] deals with selected Gram-negative strains. The arrangement: method as in PMID 24637241. The note with it: after genetic inactivation of AcrAB or its inhibition by PaβN ref 11; cited from earlier work.

Values after ≈ are worked out from the molar mass of the structure shown. Read-outs that look alike come from different tables or passages of the source. Where only a bound is given, the exact number is not on record here.

Broadly, the MIC is the least concentration at which growth counts as inhibited. One may read the MBC as the smallest concentration meeting the test's criterion for killing. Lower therefore signals more potent killing.

Consider “3-(1,4-benzoxathiane-2-yl)-2,6-difluorobenzamide [Compound 1]”, for which the “Morphological changes in septum formation (TEM)” value in [1] is “strong alterations in the septum formation and bacterial desegregation”. The MIC in data set [2] was over 100 µg/mL; in data set [3] it was 64 µg/mL; in data set [4] it was 2 µg/mL; in [5], 1 µg/mL; in data set [6], 1 µg/mL; in data set [7], 2 µg/mL. This compound also yielded an MIC in data set [9] of over 100 µg/mL. In addition, the MBC in data set [5] and in data set [6] was 1 µg/mL each time. The MBC/MIC in data set [5] and in data set [6] was 1 throughout. Also, the TD90 in data set [8] was over 800 µg/mL.
On to `CC[n+]1c(/C=C/N(C)c2ccccc2)n(-c2ccccc2)c2ccc(-c3nc4ccccc4s3)cc21` [Compound Z2], for which the MIC in data set [10] was 2.5 µg/mL; in data set [11] it was 0.6 µg/mL; in [12], 20 µg/mL.
For `Cc1nc(-c2ccc3c(c2)OC(COc2ccc(F)c(C(N)=O)c2F)CO3)no1` (stereo not shown) [II], in [13], the “Morphometric analysis by TEM” value is “significant elongation in cellular dimension, bacterial swelling and cell desegregation”. For the same compound, the MIC was over 100 µg/mL in [14]; 16 µg/mL (≈ 39.7 µM) in data set [10]; 0.6 µg/mL (≈ 1.49 µM) in data set [11]; 16 µg/mL (≈ 39.7 µM) in [15]; over 100 µg/mL in [16].
As for `CSc1nc(-c2ccc3c(c2)OC(COc2ccc(F)c(C(N)=O)c2F)CO3)no1` (stereo not shown) [I], in data set [13], the “Morphometric analysis by TEM” value is “significant elongation in cellular dimension, bacterial swelling and cell desegregation”. Further, the minimum inhibitory concentration (MIC) is over 100 µg/mL in [14]; 16 µg/mL (≈ 36.7 µM) in data set [10]; 0.6 µg/mL (≈ 1.38 µM) in [11]; 16 µg/mL (≈ 36.7 µM) in data set [15]; over 100 µg/mL in data set [16].
Consider `CN(C)CNC(=O)c1c(F)ccc(OCc2nc3cc(Cl)cnc3s2)c1F` [TXY436], for which the minimum inhibitory concentration (MIC) in data set [10] was 8 µg/mL (≈ 19.4 µM); in [11], 1.0 µg/mL (≈ 2.42 µM); in data set [17], 8 µg/mL (≈ 19.4 µM).

These data come from paper PMC7235863, “Benzamide Derivatives Targeting the Cell Division Protein FtsZ: Modifications of the Linker and the Benzodioxane Scaffold and Their Effects on Antimicrobial Activity” (Antibiotics, 2020).
